This is an account of results in US7414131B2, “Bicycloheteroarylamine compounds as ion channel ligands and uses thereof” (Renovis, Inc., priority 2003, dated 2008).

pIC50: −log10 of the molar value. Where a name gives a salt, the structure may show the parent alone.

The subject of one data set is Sprague-Dawley male rats. Kind of data set: Carrageenan-induced thermal hyperalgesia, latency of paw withdrawal. Type of data set: in vivo. The note with it: rat, carrageenan hindpaw; 30 mg/kg dosed one hour after carrageenan; tested two hours later. The method, then: Sprague-Dawley male rats obtained from Charles River, San Diego, Calif. were purchased at 150-175 g, and held for at least one week before testing. Pain was induced by injecting 100 μl of 2% carrageenan in 0.9% saline sub-Q into the right ventral hindpaw while the animals were under isofluorane anesthesia. Animals were then dosed one hour after with a concentration of 30 mg/kg of Compound 1. Two hours later, after acclimatizing in testing chambers for 20-30 minutes, animals were tested on both hindpaws for latency of paw withdrawal using a thermal testing apparatus. 2-3 trials were conducted with 10 minutes between trials. […] The figure depicts the time in seconds until animals withdraw from thermal stimulation at baseline and two hours after administration of delivery vehicle, control compound, and the dose of 30 mg/kg of Compound 1.
(In general: Carrageenan injected into the paw causes an acute inflammation.)

A further data set addresses hVR1 (Homo sapiens, UniProt Q8NER1). Kind of data set: High throughput calcium imaging assay (Fura2, Flex Station) of VR1 antagonists. Type of data set: cell-based. The note with it: HEK 293 cells expressing hVR1; for % Inhibition @ 1 μM: 1 μM compound, inhibition of calcium ion influx; for pIC50: concentrations 10 nM to 3.3 μM. The source says:
VR1 protein is a heat-gated cation channel that exchanges about 10 calcium ions for every sodium ion resulting in neuronal membrane depolarization and elevated intracellular calcium ion levels. Therefore the functional activity of compounds at the VR1 receptor may be determined by measuring changes in intracellular calcium levels in 293 cells expressing capsaicin-insensitive VR1 receptor variants. A dual wavelength ratiometric dye, Fura2, was used as an indicator of relative levels of calcium ions in a 96 well format using a bench top scanning fluorometer with integrated fluidics and temperature control (Flex Station, Molecular Devices).
A dual wavelength ratiometric dye, Fura2, was used as an indicator of relative levels of [Ca2+] in a 96 well format using a bench top scanning fluorometer with integrated fluidics and temperature control (Flex Station, Molecular Devices).
HEK 293 cells expressing hVR1 were grown on PDL coated 96-well black-walled plates, in the presence of a DMEM medium containing 5% Penstrep, 5% Glutamax, 200 ug/mL Hygromycin, 5 μg/mL Blasticide and 10% heat inactivated FBS. Prior to assay, the cells were loaded with 5 μg/mL Fura2 in normal saline solution at 37° C. for 40 minutes. Cells were then washed with normal saline to remove the dye.
The assay consists of two stages; a pre-treatment phase followed by a treatment phase. In the pretreatment phase, 50 μl of a compound solution was added to the cells. Immediately following, 50 μl of the test compound in the presence of agonist (a saline solution plus 10 mM citric acid bufferd to pH 5.7 with HCl) was added. Fura2 was excited at […] to indicate relative calcium concentration. Changes in wavelength measurements were made throughout the course of the experiment in 4 second intervals over a period of 3 minutes. The fluorescence ratio from the excitations at […] was recorded for analysis. Responses were measured as peak fluorescence ratio after compound-agonist addition minus baseline fluorescence ratio prior to treatment and were calculated for each concentration tested using the SoftMaxPro software. Data was expressed as percentage inhibition calculated as follows: […]
A dose response curve was then determined, from which the IC50 of each compound was calculated.

Data set [1] is described as follows: Pharmacokinetic profile after intravenous and oral administration in rats. The data set is classed as in vivo, rat. The note with it: IV 1 mg/kg, oral 5 mg/kg; for bioavailability / Vd / Cmax / Tmax: male, Sprague-Dawley; for bioavailability / Vd: plasma; for bioavailability / Vd / Cls (L/hrKg) / T/2: rat; for Vd / Cmax / Tmax / Cls (L/hrKg) / T/2: route of this column not given; for Cmax / Tmax: rat plasma. The method, then:
The pharmacokinetic profile of Compound 1 was evaluated following intravenous and oral administration in rats. Sprague-Dawley male rats obtained from Charles River, San Diego, Calif. were acclimated for 24 hours.
Compounds of this invention were formulated at a concentration of 0.5 mg/mL for IV administration at a 1 mg/kg dose and 1 mg/mL for oral administration at a 5 mg/kg dose. All animals were weighed before dosing. The body weight was used to calculate the actual dose for each animal. The intravenous dose was administered through the jugular vein catheter in less than 1 minute. The oral dose volume was 1.5 mL for all PO rats administered through oral lavage.
For IV dosing, blood samples were collected using a pre-heparinized syringe via the caproic artery catheter before dosing and at t=2, 5, 15, 30, 60, 120, 180, 360, and 480 minutes post dosing. For PO dosing, blood samples were collected using a pre-heparinized syringe via the caproic artery catheter before dosing and at t=5, 15, 30, 60, 120, 180, 360, and 480 minutes post dosing. 250 uL of blood was obtained at each time point from each animal. Equal volumes of 0.9% normal saline were replaced to prevent dehydration. The whole blood samples were maintained on ice until centrifugation. Blood samples were centrifuged at 14,000 rpm for 10 minutes at 4° C., and the upper plasma layer was transferred into a clean vial and store at −80° C.

Chain of hVR1 (Q8NER1 whole entry): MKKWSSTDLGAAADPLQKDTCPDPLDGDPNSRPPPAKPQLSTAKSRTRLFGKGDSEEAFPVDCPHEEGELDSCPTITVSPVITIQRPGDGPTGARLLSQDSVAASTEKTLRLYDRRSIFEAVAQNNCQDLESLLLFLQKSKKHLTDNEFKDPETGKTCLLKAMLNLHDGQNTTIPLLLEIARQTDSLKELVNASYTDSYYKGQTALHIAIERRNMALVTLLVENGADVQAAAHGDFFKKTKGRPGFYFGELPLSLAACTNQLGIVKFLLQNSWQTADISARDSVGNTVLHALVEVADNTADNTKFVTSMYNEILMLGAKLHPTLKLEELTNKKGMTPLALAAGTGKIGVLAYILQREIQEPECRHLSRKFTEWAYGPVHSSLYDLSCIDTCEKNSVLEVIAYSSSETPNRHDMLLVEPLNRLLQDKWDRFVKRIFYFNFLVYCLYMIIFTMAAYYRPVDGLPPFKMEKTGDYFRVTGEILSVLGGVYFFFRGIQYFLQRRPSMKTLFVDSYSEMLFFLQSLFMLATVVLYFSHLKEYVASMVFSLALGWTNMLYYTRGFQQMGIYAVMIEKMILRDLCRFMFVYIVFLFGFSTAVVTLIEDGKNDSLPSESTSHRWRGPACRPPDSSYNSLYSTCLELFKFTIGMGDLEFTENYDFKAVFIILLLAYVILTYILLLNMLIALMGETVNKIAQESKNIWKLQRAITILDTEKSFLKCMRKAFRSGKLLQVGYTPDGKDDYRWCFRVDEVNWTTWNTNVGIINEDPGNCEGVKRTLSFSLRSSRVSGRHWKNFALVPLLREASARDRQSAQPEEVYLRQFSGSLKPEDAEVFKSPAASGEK

`FC(F)(F)c1ccc(Nc2ncnc3c2CCN(c2ncccc2Cl)C3)cc1` [Example 1, 7-(3-Chloropyridin-2-yl)-N-(4-(trifluoromethyl)phenyl)-5,6,7,8-tetrahydropyrido[3,4-d]pyrimidin-4-amine]: the “latency of paw withdrawal (reversal of thermal hyperalgesia)” value with Sprague-Dawley male rats is reported as “significantly increased latency of paw withdrawal”. As for `CC(C)(C)c1ccc(Nc2ncnc3c2CCN(Cc2ccccc2)C3)cc1` [Example 2, N-(4-tert-Butylphenyl)-7-benzyl-5,6,7,8-tetrahydropyrido[3,4-d]pyrimidin-4-amine], on hVR1, the “% Inhibition @ 1 μM” value is “IA (IA inactive.)”. For the compound `FC(F)(F)CCN1CCc2c(ncnc2Nc2ccc3c(c2)OCCO3)C1` [Example 7, (2,3-Dihydro-benzo[1,4]dioxin-6-yl)-[7-(3,3,3-trifluoro-propyl)-5,6,7,8-tetrahydro-pyrido[3,4-d]pyrimidin-4-yl]-amine hydrochloride], at hVR1, the “% Inhibition @ 1 μM” value is “IA (IA inactive.)”.

Take `FC(F)(F)c1ccc(Nc2ncnc3c2CCN(c2ncccc2C(F)(F)F)C3)cc1` [Example 12, (4-Trifluoromethyl-phenyl)-[7-(3-trifluoromethyl-pyridin-2-yl)-5,6,7,8-tetrahydro-pyrido[3,4-d]pyrimidin-4-yl]-amine]: the pIC50 at hVR1 was under 6.00.

Consider `FC(F)Oc1ccc(Nc2ncnc3c2CCN(c2ncccc2Cl)C3)cc1` [Example 15, 7-(3-Chloropyridin-2-yl)-N-(4-(difluoromethoxy)phenyl)-5,6,7,8-tetrahydropyrido[3,4-d]pyrimidin-4-amine], for which, on hVR1, the “% Inhibition @ 1 μM” value is “IA (IA inactive.)” and the negative logarithm of the IC50 (pIC50) is under 6.00. Consider `CC(C)S(=O)(=O)c1cccnc1N1CCc2c(ncnc2Nc2ccc(C(F)(F)F)cc2)C1` [Example 16, N-(4-(Trifluoromethyl)phenyl)-5,6,7,8-tetrahydro-7-(3-(isopropylsulfonyl)pyridin-2-yl)pyrido[3,4-d]pyrimidin-4-amine], for which, on hVR1, the “% Inhibition @ 1 μM” value was “IA (IA inactive.)”. As to `Clc1cccnc1N1CCc2c(ncnc2Nc2ccccc2)C1` [Example 18, 7-(3-Chloropyridin-2-yl)-5,6,7,8-tetrahydro-N-phenylpyrido[3,4-d]pyrimidin-4-amine], on hVR1, the “% Inhibition @ 1 μM” value was “++ (“++” compound exhibited 26-50% inhibition of calcium ion influx induced by capsaicin stimulation.)”. For the same compound, in data set [1], the bioavailability stood at 4.07%, the Vd was determined as 18 L/kg, the concentration peaked (Cmax) at 44.6 ng/mL and the Tmax turned out to be 55.2 min. Also, in data set [1], the “Cls (L/hrKg)” value was found to be 4.45 L/hrKg and the “T/2” value was 2.55 h. With `Fc1ccc(Nc2ncnc3c2CCN(c2ncccc2Cl)C3)cc1` [Example 19, 7-(3-Chloropyridin-2-yl)-N-(4-fluorophenyl)-5,6,7,8-tetrahydropyrido[3,4-d]pyrimidin-4-amine], the “% Inhibition @ 1 μM” value on hVR1 is recorded as “+++ (“+++” compound exhibited 51-75% inhibition of calcium ion influx induced by capsaicin stimulation.)”. In data set [1], the bioavailability came to 5.66%, the Vd was 12.2 L/kg, the highest level (Cmax) was 24.5 ng/mL and the time of peak concentration (Tmax) was 40.8 min. In data set [1], the “Cls (L/hrKg)” value stood at 4.47 L/hrKg and the “T/2” value amounted to 1.9 h. With `O=S(=O)(c1ccc(Nc2ncnc3c2CCN(c2ncccc2Cl)C3)cc1)C(F)(F)F` [Example 22, 7-(3-Chloropyridin-2-yl)-5,6,7,8-tetrahydro-N-(4-(trifluoromethylsulfonyl)phenyl)pyrido[3,4-d]pyrimidin-4-amine], the “% Inhibition @ 1 μM” value on hVR1 is “IA (IA inactive.)”. The same measure, in the same setting: next, `CS(=O)(=O)c1cccnc1N1CCc2c(ncnc2Nc2ccc(S(=O)(=O)C(F)(F)F)cc2)C1` [Example 23, 5,6,7,8-tetrahydro-7-(3-(methylsulfonyl)pyridin-2-yl)-N-(4-(trifluoromethylsulfonyl)phenyl)pyrido[3,4-d]pyrimidin-4-amine]: “+ (“+” compound exhibited 0-25% inhibition of calcium ion influx induced by capsaicin stimulation.)”; `CS(=O)(=O)c1nc2c(c(Nc3ccc(C(F)(F)F)cc3)n1)CCN(c1ncccc1Cl)C2` [Example 25, [7-(3-Chloro-pyridin-2-yl)-2-methanesulfonyl-5,6,7,8-tetrahydro-pyrido[3,4-d]pyrimidin-4-yl]-(4-trifluoromethyl-phenyl)-amine]: “IA (IA inactive.)”. With `c1ccc(CN2CCc3c(ncnc3Nc3ccc4c(c3)OCCO4)C2)cc1` [Example 30, (7-Benzyl-5,6,7,8-tetrahydro-pyrido[3,4-d]pyrimidin-4-yl)-(2,3-dihydro-benzo[1,4]dioxin-6-yl)-amine], the “% Inhibition @ 1 μM” value on hVR1 was “IA (IA inactive.)”. In the case of `COCc1nc2c(c(Nc3ccc(C(F)(F)F)cc3)n1)CCN(Cc1ccccc1)C2` [Example 31, 7-Benzyl-N-(4-(trifluoromethyl)phenyl)-5,6,7,8-tetrahydro-2-(methoxymethyl)pyrido[3,4-d]pyrimidin-4-amine], on hVR1, the “% Inhibition @ 1 μM” value was “IA (IA inactive.)”. Same read-out and setting: next, `CN(C)CCNc1nc2c(c(Nc3ccc(C(F)(F)F)cc3)n1)CCN(c1ncccc1Cl)C2` [Example 32, 7-(3-Chloropyridin-2-yl)-N^2-(2-(dimethylamino)ethyl)-N^4-(4-(trifluoromethyl)phenyl)-5,6,7,8-tetrahydropyrido[3,4-d]pyrimidine-2,4-diamine]: “IA (IA inactive.)”. In the case of `Cc1cccc(N2CCc3c(ncnc3Nc3ccc4c(c3)OCCO4)C2)c1` [Example 36, 5,6,7,8-Tetrahydro-N-(2,3-dihydrobenzo[b][1,4]dioxin-6-yl)-7-m-tolylpyrido[3,4-d]pyrimidin-4-amine], the pIC50 at hVR1 is 6.00 to 6.30. Regarding `c1ccc(CN2CCc3c(ncnc3Nc3cnc4ccccc4c3)C2)cc1` [Example 38, 7-Benzyl-5,6,7,8-tetrahydro-N-(quinolin-3-yl)pyrido[3,4-d]pyrimidin-4-amine], on hVR1, the “% Inhibition @ 1 μM” value was “IA (IA inactive.)”. Same read-out and setting: next, `FC(F)(F)c1cccc(Nc2ncnc3c2CCN(c2ncccc2Cl)C3)c1` [Example 43, 7-(3-Chloropyridin-2-yl)-N-(3-(trifluoromethyl)phenyl)-5,6,7,8-tetrahydropyrido[3,4-d]pyrimidin-4-amine]: “IA (IA inactive.)”. Still for that read-out and setting: next, `FC(F)(F)c1ccc(Nc2ncnc3c2CCN(c2ccccc2)C3)cc1` [Example 44, N-(4-(Trifluoromethyl)phenyl)-5,6,7,8-tetrahydro-7-phenylpyrido[3,4-d]pyrimidin-4-amine]: “IA (IA inactive.)”; `Cc1ccccc1N1CCc2c(ncnc2Nc2ccc(C(F)(F)F)cc2)C1` [Example 45, N-(4-(Trifluoromethyl)phenyl)-5,6,7,8-tetrahydro-7-o-tolylpyrido[3,4-d]pyrimidin-4-amine]: “IA (IA inactive.)”. Turning to `Cc1ccc(N2CCc3c(ncnc3Nc3ccc(C(F)(F)F)cc3)C2)cc1` [Example 47, N-(4-(Trifluoromethyl)phenyl)-5,6,7,8-tetrahydro-7-p-tolylpyrido[3,4-d]pyrimidin-4-amine], the “% Inhibition @ 1 μM” value at hVR1 was “IA (IA inactive.)”.

The pIC50 is the IC50 on a negative log10 scale, so that one unit is a factor of ten. The bioavailability is dose-corrected exposure relative to a reference, in per cent. A low value points to little systemic uptake. The Cmax is the maximum level reached in the sampled fluid or tissue. For orientation: Tmax means the time from dosing to the highest level.
